PubChem BioAssay (NCI)
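How tested: cells in 96-well plates exposed to compound for 48 hours at five concentrations. At the GI50, growth is halved. TGI: concentration producing complete growth inhibition.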

What was measured:
Experiment in all cases: NCI tumour cell line growth inhibition, 48 h
[1] = tested on: 786-0 renal
[2] = tested on: A498 renal
[3] = tested on: A549 NSCLC
[4] = tested on: ACHN renal
[5] = tested on: BT-549 breast
[6] = tested on: CAKI-1 renal
[7] = tested on: CCRF-CEM leukemia
[8] = tested on: COLO 205 colon
[9] = tested on: DU-145 prostate
[10] = tested on: EKVX NSCLC
[11] = tested on: HCC-2998 colon
[12] = tested on: HCT-116 colon
[13] = tested on: HCT-15 colon
[14] = tested on: HL-60(TB) leukemia
[15] = tested on: HOP-62 NSCLC
[16] = tested on: HOP-92 NSCLC
[17] = tested on: HS 578T breast
[18] = tested on: HT29 colon
[19] = tested on: IGROV1 ovarian
[20] = tested on: K-562 leukemia
[21] = tested on: KM12 colon
[22] = tested on: LOX IMVI melanoma
[23] = tested on: M14 melanoma
[24] = tested on: MALME-3M melanoma
[25] = tested on: MCF7 breast
[26] = tested on: MDA-MB-231 breast
[27] = tested on: MDA-MB-435
[28] = tested on: MDA-MB-468 breast
[29] = tested on: MOLT-4 leukemia
[30] = tested on: NCI-H226 lung
[31] = tested on: NCI-H23 lung
[32] = tested on: NCI-H460 lung
[33] = tested on: NCI-H522 lung
[34] = tested on: OVCAR-3 ovarian
[35] = tested on: OVCAR-4 ovarian
[36] = tested on: OVCAR-5 ovarian
[37] = tested on: OVCAR-8 ovarian
[38] = tested on: PC-3 prostate
[39] = tested on: RPMI-8226 leukemia
[40] = tested on: RXF 393 renal
[41] = tested on: SF-268 CNS
[42] = tested on: SF-295 CNS
[43] = tested on: SF-539 CNS
[44] = tested on: SK-MEL-2 melanoma
[45] = tested on: SK-MEL-28 melanoma
[46] = tested on: SK-MEL-5 melanoma
[47] = tested on: SK-OV-3 ovarian
[48] = tested on: SN12C renal
[49] = tested on: SNB-19 CNS
[50] = tested on: SNB-75 CNS
[51] = tested on: SR leukemia
[52] = tested on: SW-620 colon
[53] = tested on: T-47D breast
[54] = tested on: TK-10 renal
[55] = tested on: U251 CNS
[56] = tested on: UACC-257 melanoma
[57] = tested on: UACC-62 melanoma
[58] = tested on: UO-31 renal

COc1ccc(NC2=C(I)C(=O)C(C)=C(C)C2=O)cc1
GI50 [1]: 8.56 µM | TGI [1]: 27.4 µM | GI50 [2]: 24.6 µM | TGI [2]: 68.3 µM | GI50 [3]: 16.9 µM | TGI [3]: 39 µM | GI50 [4]: 4.61 µM | TGI [4]: 17.5 µM | GI50 [5]: 12.4 µM | TGI [5]: 25.8 µM | GI50 [6]: 3.89 µM | TGI [6]: 22 µM | GI50 [7]: 1360 nM | TGI [7]: 35.4 µM | GI50 [8]: 14.8 µM | TGI [8]: 28 µM | GI50 [9]: 16.1 µM | TGI [9]: 30.7 µM | GI50 [10]: 4.25 µM | TGI [10]: 16.7 µM | GI50 [11]: 16.7 µM | TGI [11]: 33.5 µM | GI50 [12]: 2930 nM | TGI [12]: 10.4 µM | GI50 [13]: 13.5 µM | TGI [13]: 27.9 µM | GI50 [14]: 341 nM | TGI [14]: 1540 nM | GI50 [15]: 14.9 µM | TGI [15]: 36.6 µM | GI50 [16]: 7.46 µM | TGI [16]: 26.2 µM | GI50 [17]: 14.5 µM | TGI [17]: 50.2 µM | GI50 [18]: 18.2 µM | TGI [18]: 48.8 µM | GI50 [19]: 4.37 µM | TGI [19]: 17.3 µM | GI50 [20]: 2990 nM | TGI [20]: > 100 µM | GI50 [21]: 6.96 µM | TGI [21]: 42 µM | GI50 [22]: 2370 nM | TGI [22]: 8.8 µM | GI50 [23]: 15 µM | TGI [23]: 28.7 µM | GI50 [24]: 11.6 µM | TGI [24]: 23.9 µM | GI50 [25]: 2710 nM | TGI [25]: 10 µM | GI50 [26]: 2370 nM | TGI [26]: 8.48 µM | GI50 [27]: 1820 nM | TGI [27]: 3.37 µM | GI50 [28]: 416 nM | TGI [28]: 2490 nM | GI50 [29]: 625 nM | TGI [29]: 32.6 µM | GI50 [30]: 12.5 µM | TGI [30]: 28.9 µM | GI50 [31]: 4.11 µM | TGI [31]: 17.6 µM | GI50 [32]: 15.7 µM | TGI [32]: 32.8 µM | GI50 [33]: 6.54 µM | TGI [33]: 21 µM | GI50 [34]: 2750 nM | TGI [34]: 9.45 µM | GI50 [35]: 3.98 µM | TGI [35]: 15.2 µM | GI50 [36]: 11.7 µM | TGI [36]: 25.6 µM | GI50 [37]: 2260 nM | TGI [37]: 6.54 µM | GI50 [38]: 3.42 µM | TGI [38]: > 100 µM | GI50 [39]: 3.08 µM | TGI [39]: 20.2 µM | GI50 [40]: 3.6 µM | TGI [40]: 14.8 µM | GI50 [41]: 12.3 µM | TGI [41]: 55.6 µM | GI50 [42]: 13.9 µM | TGI [42]: 28.4 µM | GI50 [43]: 2500 nM | TGI [43]: 7.23 µM | GI50 [44]: 3.14 µM | TGI [44]: 12.4 µM | GI50 [45]: 14.3 µM | TGI [45]: 28.9 µM | GI50 [46]: 4.74 µM | TGI [46]: 18.2 µM | GI50 [47]: 18 µM | TGI [47]: 62.9 µM | GI50 [48]: 4.04 µM | TGI [48]: 15.5 µM | GI50 [49]: 15.4 µM | TGI [49]: 34.1 µM | GI50 [50]: 15.9 µM | TGI [50]: 35.6 µM | GI50 [51]: 1070 nM | TGI [51]: > 100 µM | GI50 [52]: 11.7 µM | TGI [52]: 29.2 µM | GI50 [53]: 1980 nM | TGI [53]: 16.3 µM | GI50 [54]: 17 µM | TGI [54]: 37.2 µM | GI50 [55]: 11.5 µM | TGI [55]: 24.7 µM | GI50 [56]: 2420 nM | TGI [56]: 8 µM | GI50 [57]: 9.68 µM | TGI [57]: 23.8 µM | GI50 [58]: 6.03 µM | TGI [58]: 19.8 µM
